# Where “and” joins values, the source holds several entries; their conditions need not be identical. Equal values may be shown once. Toxic doses and inconclusive results are not listed.
# Tested on: CAF1 mice, leiomyosarcoma No.2 ip, survival T/C%
# Assay: NCI In Vivo Anticancer Drug Screen. Data for tumor model Leiomyosarcoma (No. 2) (intraperitoneal) in CAF1 mice
# Settings: endpoint: mean survival time, schedule: Q01DX010 (ip), vehicle: saline, higher = longer survival
# Description: The antitumor activity of compounds was measured in mice bearing transplantable tumors. Survival or tumor size were measured and the results are expressed as the measurement made in the treated group (T) divided by the measurement made in the vehicle treated control group (C). The tumor model used in this assay is Leiomyosarcoma (No. 2) (intraperitoneal) in CAF1 mice
smiles,measurement,setting,value
CSc1ncnc2nc[nH]c12,T/C,dose: 25.0 mg/kg/injection,100 % of control and 109 % of control
same,T/C,dose: 50.0 mg/kg/injection,104 % of control and 109 % of control
same,T/C,dose: 100.0 mg/kg/injection,104 % of control and 113 % of control
same,T/C,dose: 200.0 mg/kg/injection,100 % of control
Cn1c(N)nc2nc[nH]c2c1=S,T/C,dose: 10.0 mg/kg/injection,100 % of control
same,T/C,dose: 20.0 mg/kg/injection,120 % of control
same,T/C,dose: 40.0 mg/kg/injection,104 % of control
same,T/C,dose: 80.0 mg/kg/injection,108 % of control
N#[N+]c1cnc([O-])[nH]c1=O,T/C,dose: 2.5 mg/kg/injection,213 % of control
same,T/C,dose: 10.0 mg/kg/injection,93 % of control
O=C(Nc1ccc(C2=NCCN2)cc1)c1cccc(C(=O)Nc2ccc(C3=NCCN3)cc2)c1,T/C,dose: 8.0 mg/kg/injection,260 % of control and 300 % of control
same,T/C,dose: 16.0 mg/kg/injection,257 % of control and 260 % of control
Nc1nc(=S)c2[nH]cnc2[nH]1,T/C,dose: 1.25 mg/kg/injection,300 % of control
same,T/C,dose: 5.0 mg/kg/injection,93 % of control
O=c1c(O)cccc2cc(O)c(O)c(O)c12,T/C,dose: 25.0 mg/kg/injection,88 % of control
same,T/C,dose: 50.0 mg/kg/injection,102 % of control
CCOC(=O)c1[nH]c2ccccc2c1CN(CCCl)CCCl,T/C,dose: 10.0 mg/kg/injection,116 % of control
same,T/C,dose: 20.0 mg/kg/injection,170 % of control
same,T/C,dose: 40.0 mg/kg/injection,150 % of control
CN(C)c1nc(N(C)C)nc(N(C)C)n1,T/C,dose: 18.8 mg/kg/injection,100 % of control and 108 % of control
same,T/C,dose: 37.5 mg/kg/injection,89 % of control and 112 % of control
same,T/C,dose: 75.0 mg/kg/injection,96 % of control and 104 % of control
same,T/C,dose: 150.0 mg/kg/injection,110 % of control
Cc1cc(N(CCCl)CCCl)ccc1N=Nc1ccccc1C(=O)O,T/C,dose: 10.0 mg/kg/injection,150 % of control and 183 % of control
same,T/C,dose: 20.0 mg/kg/injection,175 % of control
same,T/C,dose: 40.0 mg/kg/injection,104 % of control and 225 % of control
Clc1ncnc2nc[nH]c12,T/C,dose: 7.5 mg/kg/injection,86 % of control and 107 % of control
same,T/C,dose: 15.0 mg/kg/injection,93 % of control and 103 % of control
same,T/C,dose: 30.0 mg/kg/injection,111 % of control and 116 % of control
same,T/C,dose: 60.0 mg/kg/injection,107 % of control
CC(CCC(C)OS(C)(=O)=O)OS(C)(=O)=O (configuration not stated),T/C,dose: 2.0 mg/kg/injection,104 % of control
same,T/C,dose: 4.0 mg/kg/injection,100 % of control
same,T/C,dose: 8.0 mg/kg/injection,103 % of control and 104 % of control
same,T/C,dose: 16.0 mg/kg/injection,117 % of control
CCN(CC)CCNc1ccc(C)c2sc3ccccc3c(=O)c12,T/C,dose: 12.5 mg/kg/injection,116 % of control
same,T/C,dose: 25.0 mg/kg/injection,100 % of control and 116 % of control
same,T/C,dose: 50.0 mg/kg/injection,103 % of control
same,T/C,dose: 100.0 mg/kg/injection,154 % of control
OCC1OC(n2cnc3c(=S)nc[nH]c32)C(O)C1O (configuration not stated),T/C,dose: 20.0 mg/kg/injection,161 % of control and 248 % of control
same,T/C,dose: 80.0 mg/kg/injection,153 % of control
same,T/C,dose: 160.0 mg/kg/injection,87 % of control
N=C(N)SCc1c2ccccc2c(CSC(=N)N)c2ccccc12,T/C,dose: 2.5 mg/kg/injection,172 % of control
same,T/C,dose: 5.0 mg/kg/injection,186 % of control and 209 % of control
same,T/C,dose: 10.0 mg/kg/injection,177 % of control and 204 % of control
same,T/C,dose: 20.0 mg/kg/injection,109 % of control and 209 % of control
same,T/C,dose: 40.0 mg/kg/injection,104 % of control
CC(=O)NC1=C(N2CC2)C(=O)C(NC(C)=O)=C(N2CC2)C1=O,T/C,dose: 0.25 mg/kg/injection,163 % of control
same,T/C,dose: 0.5 mg/kg/injection,222 % of control
same,T/C,dose: 1.0 mg/kg/injection,300 % of control
same,T/C,dose: 2.0 mg/kg/injection,100 % of control
same,T/C,dose: 250.0 micrograms/kg/injection,195 % of control
same,T/C,dose: 500.0 micrograms/kg/injection,195 % of control
same,T/C,dose: 1000.0 micrograms/kg/injection,300 % of control
CCCNc1ncnc2[nH]ncc12,T/C,dose: 6.25 mg/kg/injection,114 % of control
same,T/C,dose: 12.5 mg/kg/injection,88 % of control and 90 % of control
C[C@@H]1C[C@@H]([C@H](O)CC2CC(=O)NC(=O)C2)C(=O)[C@@H](C)C1,T/C,dose: 5.0 mg/kg/injection,100 % of control and 103 % of control
same,T/C,dose: 10.0 mg/kg/injection,110 % of control and 111 % of control
same,T/C,dose: 20.0 mg/kg/injection,116 % of control
same,T/C,dose: 40.0 mg/kg/injection,163 % of control and 169 % of control
N=C(N)c1ccc(Nc2ccc(C(=N)N)cc2)cc1,T/C,dose: 3.0 mg/kg/injection,108 % of control
same,T/C,dose: 6.0 mg/kg/injection,104 % of control
same,T/C,dose: 12.0 mg/kg/injection,100 % of control

# — PubChem BioAssay AID238 (DTP/NCI, 2004)
